Measurements: patent publication US7166744B2, “Retinoid derivatives and methods for producing said compounds and anti-cancer pharmaceutical composition comprising said compounds” (Chebigen Co., Ltd., priority 2001, dated 2007)

Key:
Assay type in all cases: cell-based
DLD-1 colon cancer cells [1] = assay: MTT proliferation assay, DLD-1
Experimental: (§1) The effects of test compounds on proliferation of various cancer cells was examined by 3-(4,5-dimethylthiazol-2-yl)-2,5-diphenyltetrazolium bromide (MTT, Sigma) assay in a dose dependent manner. In the MTT assay, colon, liver, cervix, ovary, and breast cancer cell lines were treated with test compounds at various concentrations. Living cancer cells reduce MTT to dark blue MTT formazan that would be measured by absorbance.
(§2) Colon cancer cells, HCT116, DLD-1 and HT29, cervix cancer cells, HeLa and CaSki, ovary cancer cells, SKOV-3, 2774 and OVCAR-3, liver cancer cells, SK-Hep-1, PLCPRF5 and HepG2, and breast cancer cells, ZR75-1 and MDA-MB 231 were seeded at an initial density of 3000 cells per well in 96-well plates. After attachment of cells to the walls of the wells, the medium containing fresh retinoid was treated with various concentrations (0.5 μM, 1 μM, 2.5 μM, 5 μM, 10 μM) for 48 hours. 50 μl of MTT solution (2 mg/ml in PBS) was added to cell culture media. The reaction micture was incubated at 37° C. in a 5% CO2 atmosphere for 4 hours. The supernatant was removed and 150 μl of DMSO was added. The optical density was measured spectrophotometrically at 550 nm. […] For other retinoid derivatives according to the present invention, absorbances were measured by this procedure and IC50 values, concentrations required for 50% growth inhibition, were determined.

HeLa cervix cancer cells = assay: MTT proliferation assay, HeLa; conditions: 48 hours, uterine cancer
Experimental: as §1, §2

[2] = tested on: MDA-MB-231 breast cancer cells; assay: MTT proliferation assay, MDA-MB-231
Experimental: as §1, §2

RARβ = biological target: T1, RARβ (Homo sapiens, UniProt P10826); assay: CAT reporter assay, RARβ; conditions: 1 μM, control = 1.0; for expression level of CAT enzyme, RARβ −: column '−'
T1 construct: expressed in transfected cells
T1 sequence (P10826 1-455): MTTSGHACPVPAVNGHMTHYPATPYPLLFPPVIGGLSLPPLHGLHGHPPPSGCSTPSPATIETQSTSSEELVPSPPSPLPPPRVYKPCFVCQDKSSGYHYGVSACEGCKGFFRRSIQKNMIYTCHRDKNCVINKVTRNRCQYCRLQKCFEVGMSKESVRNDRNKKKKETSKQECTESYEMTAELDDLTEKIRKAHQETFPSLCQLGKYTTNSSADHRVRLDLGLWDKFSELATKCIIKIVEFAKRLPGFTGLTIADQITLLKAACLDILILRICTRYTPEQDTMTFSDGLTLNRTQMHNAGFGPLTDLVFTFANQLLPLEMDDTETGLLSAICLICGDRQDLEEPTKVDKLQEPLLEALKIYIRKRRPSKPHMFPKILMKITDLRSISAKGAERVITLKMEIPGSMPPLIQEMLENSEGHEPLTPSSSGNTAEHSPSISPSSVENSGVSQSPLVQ
Source text: In order to confirm the effect of KCBG60 according to the present invention on retinoid receptor activity, cells were cotransfected with expression vectors of receptor subfamilies and reporter genes. As the reporter gene, chloramphenicol acetyltransferase (CAT) with a transcription control site reactive to respective receptors was used.

HCT116 cells = assay: In vitro matrigel invasion assay, HCT116; conditions: HCT116, 1 μM, 8 hours, matrigel-coated filter
Experimental: Meanwhile, to determine the effect of KCBG60 on the invasion potential of HCT116 cells, in vitro assay was performed. […] After cultivation for a predetermined period of time, the number of cells migrating to lower side of the filter was measured to determin the invasion level (FIG. 15).

[3] = tested on: MCF-7 breast cancer cells; assay: MTT proliferation assay, MCF-7; conditions: 48 hours
DLD-1 colon cancer cells [4] = assay: Trypan blue surviving cell count, DLD-1
Source text: (§3) Surviving cells, which had not be stained by trypan blue were counted and the results are shown in Table 3 as relative surviving cells (%).

[5] = tested on: SK-Hep-1 liver cancer cells; assay: Trypan blue surviving cell count, SK-HEP-1
Source text: as §3

MMP-1 mRNA expression = assay: RT-PCR of MMP-1 mRNA in HCT116; conditions: HCT116, 1 μM; for inhibition of MMP-1 mRNA expression: 36 hours
Experimental: (§4) Previously, it was shown that the synthetic retinoid derivatives inhibit the transcriptional activity of AP-1. Also, it is well known that MMP (matrix metalloproteinase), a main target gene of AP-1 is involved in metastasis of cancer cells. Therefore, the inhibitive effects of the retinoid derivatives on metastasis of cancer was examined by RT-PCR analysis. Colon cancer HCT116 cells were treated with 1 μM retinoid for 36 hours. RNA was isolated from the cells and mRNA expression levels of MMP-1, -2 and -3 were analyzed by RT-PCR. […] As the control, GAPDH was used and it was confirmed that its expression was not affected by retinoid. Meanwhile, the expression level of MMP-3 was affected weakly by KCBG40, intermediately by KCBG41 but strongly by KCBG10 (FIG. 9).
(§5) RNA was isolated from the cells and mRNA expression levels of MMP-1, -2 and -3 were analyzed by RT-PCR (FIG. 14).

MMP-2 mRNA expression = assay: RT-PCR of MMP-2 mRNA in HCT116; conditions: HCT116, 1 μM; for inhibition of MMP-2 mRNA expression: 36 hours
Experimental: as §4, §5

RXRα = biological target: T2, RXRα (Homo sapiens, UniProt P19793); assay: CAT reporter assay, RXRα; conditions: 1 μM, control = 1.0, RA = 9-cis RA; for expression level of CAT enzyme, RXRα −: column '−'
T2 construct: expressed in transfected cells
T2 sequence (P19793 1-462): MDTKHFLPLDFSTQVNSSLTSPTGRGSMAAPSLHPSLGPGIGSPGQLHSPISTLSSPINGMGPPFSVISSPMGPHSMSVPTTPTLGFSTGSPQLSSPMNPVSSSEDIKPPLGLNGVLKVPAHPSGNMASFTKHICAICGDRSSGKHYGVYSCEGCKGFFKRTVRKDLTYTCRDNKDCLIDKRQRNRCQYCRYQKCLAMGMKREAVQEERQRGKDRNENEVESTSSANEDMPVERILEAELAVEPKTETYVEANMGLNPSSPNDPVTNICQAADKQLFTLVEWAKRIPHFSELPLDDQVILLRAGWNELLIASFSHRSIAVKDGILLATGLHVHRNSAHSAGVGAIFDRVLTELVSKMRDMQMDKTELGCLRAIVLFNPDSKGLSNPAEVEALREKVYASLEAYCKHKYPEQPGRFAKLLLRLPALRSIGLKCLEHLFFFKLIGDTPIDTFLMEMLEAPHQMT
Source text: As the reporter gene, chloramphenicol acetyltransferase (CAT) with a transcription control site reactive to respective receptors was used.

Compound	expression level of CAT enzyme, RARβ + (RARβ)	expression level of CAT enzyme, RARβ − (RARβ)	reduction of the number of invaded cells (HCT116 cells)	IC50 (DLD-1 colon cancer cells [1]; 48 hours) [µM]	IC50 (HeLa cervix cancer cells) [µM]	IC50 ([2]; 48 hours) [µM]	IC50 [3] [µM]	relative surviving cells (%) (DLD-1 colon cancer cells [4]; DLD-1, 0.5 μM)	relative surviving cells (%) (DLD-1 colon cancer cells [4]; DLD-1, 1 μM)	relative surviving cells (%) (DLD-1 colon cancer cells [4]; DLD-1, 5 μM)	relative surviving cells (%) (DLD-1 colon cancer cells [4]; DLD-1, 10 μM)	relative surviving cells (%) ([5]; SK-HEP-1, 0.5 μM)	relative surviving cells (%) ([5]; SK-HEP-1, 1 μM)	relative surviving cells (%) ([5]; SK-HEP-1, 5 μM)	relative surviving cells (%) ([5]; SK-HEP-1, 10 μM)	inhibition of MMP-1 mRNA expression (MMP-1 mRNA expression)	inhibition of MMP-2 mRNA expression (MMP-2 mRNA expression)	expression level of CAT enzyme, RXRα + (RXRα)	expression level of CAT enzyme, RXRα − (RXRα)	further results
CC1=C(/C=C/C(C)=C/C=C/C(C)=C/C(=O)O)C(C)(C)CCC1 [ATRA, All-trans-retinoic acid, reference compound]	65.2	17.3	40%	–	–	–	–	–	–	–	–	–	–	–	–	–	–	–	–	IC50 (DLD-1 colon cancer cells [1]; Homo sapiens, DLD-1, 48 hours): 20 µM; IC50 (HeLa cervix cancer cells; Homo sapiens, HeLa): 5 µM; IC50 ([2]; Homo sapiens, MDA-MB-231, 48 hours): > 100 µM
CC1=C(/C=C/C(C)=C/C=C/C(C)=C/C(=O)Nc2ccc(O)cc2)C(C)(C)CCC1 [HPR, (2E,4E,6E,8E)-[3,7-dimethyl-9-(2,6,6-trimethylcyclohex-1-enyl)-nona-2,4,6,8-tetraenoylamino]-4-hydroxyphenylamide]	25.3	9.1	–	9	3	10	7	94	85	63	28	90	73	45	15	affected very little	affected very little	1.5	1.0	–
CCCC(=O)Oc1cc(O)ccc1NC(=O)/C=C(C)/C=C/C=C(C)/C=C/C1=C(C)CCCC1(C)C [KCBG10, 2.2-[(2E,4E,6E,8E)-3,7-Dimethyl-9-(2,6,6-trimethylcyclohex-1-enyl)-nona-2,4,6,8-tetraenoylamino]-5-hydroxyphenylbutanoate]	–	–	–	6	0.5	3.5	1.3	–	–	–	–	–	–	–	–	weakly	weakly	–	–	–
CCCC(=O)Nc1cc(NC(=O)/C=C(C)/C=C/C=C(C)/C=C/C2=C(C)CCCC2(C)C)ccc1O [KCBG41, (2E,4E,6E,8E)-[3,7-dimethyl-9-(2,6,6-trimethylcyclohex-1-enyl)-nona-2,4,6,8-tetraenoylamino]-(3-butyrylamino-4-hydroxy)phenylamide]	–	–	–	1.5	3	3.3	5.5	–	–	–	–	–	–	–	–	strongly	strongly	–	–	–
CCCC(=O)Oc1ccc(NC(=O)/C=C(C)/C=C/C=C(C)/C=C/C2=C(C)CCCC2(C)C)cc1 [KCBG60]	1.0	0.8	50%	–	–	–	–	95	85	60	30	90	75	48	10	–	–	1.3	0.9	MMP-1 mRNA reduction compared to ATRA and phenyl butylate (MMP-1 mRNA expression; 24 hours): two times increased; reduction of MMP-1 mRNA level (MMP-1 mRNA expression; 24 hours): about 50%; MMP-2 inhibitory expression level compared to ATRA (MMP-2 mRNA expression; 24 hours): two times higher
phenyl butylate	0.9	0.7	did not show invasion inhibiting effect	–	–	–	–	105	103	102	92	102	103	95	87	–	–	1.2	1.1	effect on expression of MMP-2 (MMP-2 mRNA expression; 24 hours): did not affect expression of MMP-2 at all
